What was measured:
[1] = target: T1, MAGL (Homo sapiens, UniProt Q99685); assay: In vitro competitive activity-based protein profiling, MAGL, human; conditions: for inhibition at 1 µM: read-out: MAGL % inh. 1 μM (human)
T1 sequence (Q99685 1-303): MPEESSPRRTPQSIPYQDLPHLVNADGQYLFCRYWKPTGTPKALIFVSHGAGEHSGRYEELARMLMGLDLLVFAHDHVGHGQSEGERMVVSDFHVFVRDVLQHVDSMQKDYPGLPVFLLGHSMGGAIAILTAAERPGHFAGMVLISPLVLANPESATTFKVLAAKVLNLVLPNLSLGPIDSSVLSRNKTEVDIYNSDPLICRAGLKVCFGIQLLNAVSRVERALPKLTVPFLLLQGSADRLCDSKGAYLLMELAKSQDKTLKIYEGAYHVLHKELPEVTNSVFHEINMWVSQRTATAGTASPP

[2] = target: T2, MAGL (Mus musculus, UniProt O35678); assay: In vitro competitive activity-based protein profiling, MAGL, mouse; conditions: read-out: MAGL % inh. 1 μM (mouse)
T2 sequence (O35678 1-303): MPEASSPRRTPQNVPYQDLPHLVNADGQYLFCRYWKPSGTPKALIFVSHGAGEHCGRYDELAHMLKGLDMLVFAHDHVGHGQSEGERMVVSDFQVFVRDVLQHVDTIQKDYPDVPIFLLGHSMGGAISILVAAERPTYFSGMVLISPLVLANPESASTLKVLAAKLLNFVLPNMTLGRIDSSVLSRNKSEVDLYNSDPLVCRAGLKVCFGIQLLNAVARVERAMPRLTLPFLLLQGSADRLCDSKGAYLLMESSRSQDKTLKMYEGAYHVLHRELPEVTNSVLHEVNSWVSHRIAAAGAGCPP

[3] = target: T3, FAAH (Homo sapiens, UniProt O00519); assay: In vitro competitive activity-based protein profiling, FAAH, human; conditions: for inhibition at 1 µM: read-out: FAAH % inh. 1 μM (human)
T3 sequence (O00519 1-579): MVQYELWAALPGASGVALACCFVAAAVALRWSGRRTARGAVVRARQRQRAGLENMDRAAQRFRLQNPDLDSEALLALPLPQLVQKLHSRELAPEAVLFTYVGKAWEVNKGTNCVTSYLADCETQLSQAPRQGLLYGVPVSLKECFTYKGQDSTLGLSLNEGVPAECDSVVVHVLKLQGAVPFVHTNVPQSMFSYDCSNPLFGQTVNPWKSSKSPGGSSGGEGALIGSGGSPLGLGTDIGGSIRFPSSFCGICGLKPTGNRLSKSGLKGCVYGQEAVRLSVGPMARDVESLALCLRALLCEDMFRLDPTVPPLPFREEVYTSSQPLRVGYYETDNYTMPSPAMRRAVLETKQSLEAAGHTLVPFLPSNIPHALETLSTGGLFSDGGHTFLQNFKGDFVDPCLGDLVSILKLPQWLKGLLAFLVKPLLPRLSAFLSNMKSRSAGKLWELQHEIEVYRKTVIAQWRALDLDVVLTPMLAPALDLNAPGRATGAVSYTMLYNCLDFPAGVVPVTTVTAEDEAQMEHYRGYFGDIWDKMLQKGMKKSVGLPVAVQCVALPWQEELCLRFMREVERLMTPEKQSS

[4] = target: T4, FAAH (Mus musculus, UniProt O08914); assay: In vitro competitive activity-based protein profiling, FAAH, mouse; conditions: read-out: FAAH % inh. 1 μM (mouse)
T4 sequence (O08914 1-579): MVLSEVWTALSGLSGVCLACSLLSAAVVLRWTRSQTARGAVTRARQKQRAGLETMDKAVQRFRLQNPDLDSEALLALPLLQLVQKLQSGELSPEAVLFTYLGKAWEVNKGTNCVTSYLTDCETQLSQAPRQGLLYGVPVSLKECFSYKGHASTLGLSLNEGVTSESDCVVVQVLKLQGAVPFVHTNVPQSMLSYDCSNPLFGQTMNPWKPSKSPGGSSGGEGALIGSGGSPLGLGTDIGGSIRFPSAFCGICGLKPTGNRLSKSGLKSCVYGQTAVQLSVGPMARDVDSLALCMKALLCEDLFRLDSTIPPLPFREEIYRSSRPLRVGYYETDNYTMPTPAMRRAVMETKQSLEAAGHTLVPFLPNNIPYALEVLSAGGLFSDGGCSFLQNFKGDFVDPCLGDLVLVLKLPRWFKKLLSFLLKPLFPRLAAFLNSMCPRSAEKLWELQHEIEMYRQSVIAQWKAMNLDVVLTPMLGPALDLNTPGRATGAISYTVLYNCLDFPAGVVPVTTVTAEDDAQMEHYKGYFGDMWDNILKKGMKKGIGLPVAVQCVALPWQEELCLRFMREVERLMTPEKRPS

| Structure (SMILES) | inhibition at 1 µM [1] [%] | inhibition at 1 µM [2] [%] | inhibition at 10 µM ([3]; read-out: FAAH % inh. (human) at 10 uM) [%] | inhibition at 1 µM [4] [%] | inhibition at 1 µM [3] [%] | IC50 [3] [µM] | IC50 [1] [µM] |
| --- | --- | --- | --- | --- | --- | --- | --- |
| O=C(O)c1ccn(C(=O)N2CCN(Cc3ccc(Cl)cc3)CC2)n1 [Example 1, 1-(4-(4-chlorobenzyl)piperazine-1-carbonyl)-1H-pyrazole-3-carboxylic Acid] | 25 to 50 | 50 to 75 | > 75 | 0 to 25 | – | – | – |
| O=C(O)c1ccn(C(=O)N2CCN(Cc3ccc(C(F)(F)F)cc3-c3nnn[nH]3)CC2)n1 [Example 5, 1-(4-(2-(1H-Tetrazol-5-yl)-4-(trifluoromethyl)benzyl)piperazine-1-carbonyl)-1H-pyrazole-3-carboxylic Acid] | > 75 | 50 to 75 | – | 0 to 25 | 0 to 25 | – | – |
| O=C(O)c1ccn(C(=O)N2CCN(Cc3ccc(C(F)(F)F)c(-c4nnco4)c3)CC2)n1 [Example 9, 1-(4-(3-(1,3,4-oxadiazol-2-yl)-4-(trifluoromethyl)benzyl)piperazine-1-carbonyl)-1H-pyrazole-3-carboxylic Acid] | > 75 | > 75 | – | 0 to 25 | 0 to 25 | – | – |
| NC(=O)c1ccc(CN2CCN(C(=O)n3ccc(C(=O)O)n3)CC2)cc1C(F)(F)F [Example 14, 1-(4-(4-Carbamoyl-3-(trifluoromethyl)benzyl)piperazine-1-carbonyl)-1H-pyrazole-3-carboxylic Acid] | 25 to 50 | 25 to 50 | – | 0 to 25 | 0 to 25 | – | – |
| O=C(O)c1ccn(C(=O)N2C[C@H]3C[C@H](OCc4ccccc4Cl)C[C@H]3C2)n1 [Example 15, 1-(trans-5-((2-Chlorobenzyl)oxy)octahydrocyclopenta[c]pyrrole-2-carbonyl)-1H-pyrazole-3-carboxylic Acid] | – | – | – | 25 to 50 | > 75 | – | – |
| Cc1cc(-c2ccccc2)ccc1CN1CCN(C(=O)n2ccc(C(=O)O)n2)CC1 [Example 16, 1-(4-((3-Methyl-[1,1′-biphenyl]-4-yl)methyl)piperazine-1-carbonyl)-1H-pyrazole-3-carboxylic Acid] | > 75 | > 75 | – | 50 to 75 | 0 to 25 | 1 to 10 | – |
| O=C(O)c1ccn(C(=O)N2CCN(Cc3cccc(Oc4cccnc4)c3)CC2)n1 [Example 18, 1-(4-(3-(Pyridin-3-yloxy)benzyl)piperazine-1-carbonyl)-1H-pyrazole-3-carboxylic Acid] | 50 to 75 | 25 to 50 | – | 0 to 25 | 0 to 25 | – | – |
| O=C(O)c1ccn(C(=O)N2CCN(Cc3cc(Cl)cc(Oc4ccc(Cl)cc4)c3)CC2)n1 [Example 19, 1-(4-(3-Chloro-5-(4-chlorophenoxy)benzyl)piperazine-1-carbonyl)-1H-pyrazole-3-carboxylic Acid] | > 75 | > 75 | – | > 75 | > 75 | 0.1 to 1 | – |
| O=C(O)c1nn(C(=O)N2CC3CN(Cc4ccc(-c5cnc6ccccn56)cc4C(F)(F)F)CC3C2)cc1Cl (stereo not drawn) [Example 20, 4-Chloro-1-(5-(4-(imidazo[1,2-a]pyridin-3-yl)-2-(trifluoromethyl)benzyl)octahydropyrrolo[3,4-c]pyrrole-2-carbonyl)-1H-pyrazole-3-carboxylic Acid] | > 75 | > 75 | – | > 75 | > 75 | 1 to 10 | 0.1 to 1 |
| CN(Cc1ccc(Cl)c(N2CCCC2)c1)C1(C)CCN(C(=O)n2ccc(C(=O)O)n2)CC1 [Example 39, 1-(4-((4-chloro-3-(pyrrolidin-1-yl)benzyl)(methyl)amino)-4-methylpiperidine-1-carbonyl)-1H-pyrazole-3-carboxylic acid] | > 75 | > 75 | – | 0 to 25 | 0 to 25 | – | – |
| C[C@@H]1CC[C@H](C)N1c1cc(C(F)(F)F)ccc1CN1CCCC12CCN(C(=O)n1ccc(C(=O)O)n1)CC2 [Example 80, 1-(1-(2-((2R,5S)-2,5-dimethylpyrrolidin-1-yl)-4-(trifluoromethyl)benzyl)-1,8-diazaspiro[4.5]decane-8-carbonyl)-1H-pyrazole-3-carboxylic acid] | – | – | – | 0 to 25 | 0 to 25 | – | – |
| C[C@@H]1CC[C@H](C)N1c1cc(C(F)(F)F)ccc1CN(C)C1(C)CCN(C(=O)n2ccc(C(=O)O)n2)CC1 [Example 160, 1-(4-((2-((2R,5S)-2,5-dimethylpyrrolidin-1-yl)-4-(trifluoromethyl)benzyl)(methyl)amino)-4-methylpiperidine-1-carbonyl)-1H-pyrazole-3-carboxylic acid] | – | – | – | 0 to 25 | 0 to 25 | – | – |
| CN(Cc1ccccc1Cl)[C@H]1C[C@@H]2CN(C(=O)n3ccc(C(N)=O)n3)C[C@@H]2C1 [Example 200, 1-(trans-5-((2-chlorobenzyl) (methyl)amino)octa-hydrocyclopenta[c]pyrrole-2-carbonyl)-1H-pyrazole-3-carboxamide] | – | > 75 | – | > 75 | – | – | – |
| NC(=O)c1ccn(C(=O)N2CC3CN(Cc4cc(Cl)cc(C(F)(F)F)c4)CC3C2)n1 (stereo not drawn) [Example 201, 1-(5-(3-chloro-5-(trifluoromethyl)benzyl)octahydro-pyrrolo[3,4-c]pyrrole-2-carbonyl)-1H-pyrazole-3-carboxamide] | – | > 75 | – | > 75 | – | – | – |
| NC(=O)c1ccn(C(=O)N2CC3CN(Cc4cc(Cl)ccc4Cl)CC3C2)n1 (stereo not drawn) [Example 202, 1-(5-(2,5-dichlorobenzyl)octa-hydropyrrolo[3,4-c]pyrrole-2-carbonyl)-1H-pyrazole-3-carboxamide] | – | > 75 | – | > 75 | – | – | – |
| CN(Cc1ccccc1C(F)(F)F)[C@@H]1C[C@@H]2CN(C(=O)n3ccc(C(N)=O)n3)C[C@@H]2C1 [Example 204, 1-(cis-5-(methyl(2-(trifluoromethyl)benzyl)amino)octa-hydrocyclopenta[c]pyrrole-2-carbonyl)-1H-pyrazole-3-carboxamide] | – | > 75 | – | > 75 | – | – | – |
| CN(Cc1ccc(C(F)(F)F)cc1)[C@@H]1C[C@@H]2CN(C(=O)n3ccc(C(N)=O)n3)C[C@@H]2C1 [Example 205, 1-(cis-5-(methyl(4-(trifluoromethyl)benzyl)amino)octa-hydrocyclopenta[c]pyrrole-2-carbonyl)-1H-pyrazole-3-carboxamide] | – | > 75 | – | > 75 | – | – | – |
| CN(Cc1ccccc1Cl)[C@@H]1C[C@@H]2CN(C(=O)n3ccc(C(N)=O)n3)C[C@@H]2C1 [Example 206] | – | > 75 | – | > 75 | – | – | – |
| NC(=O)c1ccn(C(=O)N2CC3CN(Cc4cccc(C(F)(F)F)c4)CC3C2)n1 (stereo not drawn) [Example 208, 1-(5-(3-(trifluoromethyl)benzyl)octahydro-pyrrolo[3,4-c]pyrrole-2-carbonyl)-1H-pyrazole-3-carboxamide] | – | > 75 | – | > 75 | – | – | – |
